Reference: publication PMC9728921, “Characterization of a KDM5 small molecule inhibitor with antiviral activity against hepatitis B virus” (PLOS ONE, 2022)

Key:
Cytotoxicity CC50, MRC-5 = assay type: cell-based; conditions: human, MRC-5 cells (embryonal lung fibroblasts)
Excerpt: (§1) a Values represent the geometric mean and multiplicative standard deviation of 3 – 5 primary human hepatocyte (PHH) donors or 5 – 10 independent experiments.
(§2) b MT-4: human T-lymphoblastoid cell line; PBMC: peripheral blood mononuclear cell; Gal-HepG2: galactose adapted human hepatoblastoma cell line; Huh-7: human hepatoma cell line; Gal-PC3: galactose adapted human prostate carcinoma cell line; MRC-5: Medical Research Council 5 embryonal lung fibroblast; NRVM: neonatal rat ventricular cardiomyocytes

[1] = Cytotoxicity CC50, Gal-PC3; assay type: cell-based; conditions: human
Excerpt: as §1, §2

[2] = test system: PHH or a panel of human cells; experiment: Cytotoxicity in PHH or in a panel of human cells (summary); assay type: cell-based; conditions: concentrations up to 57 μM
HBV [3] = experiment: HBV antiviral activity in HBV-infected PHH (overall; HBsAg and HBeAg over time); assay type: cell-based, Hepatitis B virus
Protocol: (§3) Approximately 24 hours after plating, PHH were infected with HepAD38-derived GTD virus at 500 viral genome equivalents per cell in maintenance medium supplemented with 4% PEG 8000 (Promega, Madison, WI; V3011). For patient sera infections, PHH were infected with 6 μl of patient sera in maintenance medium supplemented with 4% PEG 8000. Infections were allowed to proceed for 20–24 hours before removing remaining extracellular virions by washing with maintenance medium three times.
For the pulse dose regimen, medium containing compound was removed after two hours incubation and replaced with fresh maintenance medium every three to four days. Cells in the pulse dose experiment received only one dose of compound (Day = 0).
(§4) Hepatitis B e antigen (HBeAg) and Hepatitis B surface antigen (HBsAg) were detected in culture media at the indicated time by ELISA or electrochemiluminescence assay (MSD). The HBeAg and HBsAg ELISAs were performed using the HBeAg ELISA kit (International Immuno-Diagnostics, Foster City, CA) and HBsAg ETI-MAK-2 plus kit (DiaSorin, Stillwater, MN), respectively according to the manufacturer’s instructions. Concentrations were calculated by interpolation from standard curves with purified HBeAg and HBsAg. The MSD assay was performed according to the manufacturer’s instructions (Meso Scale Diagnostics, Rockville, MD). Briefly, cultured supernatants were inactivated with 0.5% Triton X-100 (30 minutes at 37°C) and then transferred into plates pre-spotted with both an anti-HBeAg antibody (Genway Bio, San Diego, CA) and a custom anti-HBsAg antibody. The plates were then incubated for two hours at room temperature with gentle shaking, followed by a wash step in PBS with 0.5% Tween. MSD sulfate tags anti-A and anti-B (1 μg/mL each) were then added to the wells and the plates incubated for a further two hours at room temperature with gentle shaking, followed by another wash step in PBS with 0.5% Tween. A 2X solution of MSD T Buffer Read was then added and the plate was read on a Sector Imager 6000 plate scanner.

HBV [4] = experiment: Intracellular HBV RNA (vRNA) by qRT-PCR in HBV-infected PHH; assay type: cell-based; conditions: Hepatitis B virus
Protocol: as §3, with “times. […]” for “times.”
Intracellular HBV viral RNA was isolated from PHH using the RNeasy 96 kit (Qiagen, 74182) following the manufacturer’s recommended protocol. Briefly, 125 μl of Qiagen RLT lysis buffer was added to PHH. The PHH lysate was then thoroughly mixed with 125 μl of 70% ethanol, transferred into a RNeasy 96 well plate, and placed onto a vacuum manifold (Qiagen; 19504). The plate was washed using RW1 and RPE buffers, followed by centrifugation (Sigma-Aldrich, Model 4-16S) at 6000 rpm for 2 minutes. The RNA was then eluted twice with 60 μl of nuclease free water for a total of 120 μl RNA.
After elution, DNase digestion by Turbo DNase (Thermo Fisher Scientific; AM2239) was performed to remove any contaminating DNA. After 30 minutes of DNase treatment at 37°C, Turbo DNase was inactivated by adding 15 mM of EDTA and heating the reaction to 75°C for 10 minutes in a thermo cycler (Thermo Fisher Scientific; Veriti 96 Well Thermal Cycler).
GAPDH or RPLP0 mRNA expression was used to normalize target gene expression. Levels of HBV RNA for all donors were calculated as fold change relative to no drug treated sample using the 2-ΔΔCt method.
(§5) Antiviral activity of test compounds was determined from vRNA, vDNA, HBeAg, and HBsAg data by comparing compound-treated PHH to DMSO (vehicle)-treated PHH to generate a percent of DMSO control value (% DMSO control). The % DMSO control was calculated by the following equation: %DMSOControl=100xXc/XD where Xc is the signal from the compound-treated PHH and XD is the signal from the DMSO-treated PHH. The % DMSO control for vRNA, vDNA, HBeAg, HBsAg, GAPDH, or RPLP0 was plotted versus the log of each compound concentration in GraphPad Prism (version 6; Graphpad Software, LaJolla, CA) to generate dose-response curves. […] Dose-response curves were fitted using the nonlinear regression equation “log(agonist) versus response–variable slope (four parameters)” in GraphPad Prism to determine EC50 values.

HBV [5] = experiment: Secreted HBeAg by immunoassay in HBV-infected PHH; assay type: cell-based; conditions: Hepatitis B virus
Protocol: as §3, with “times. […]” for “times.”
as §4, §5

[6] = Cytotoxicity in HBV-infected PHH (50% decrease in GAPDH or RPLP0); assay type: cell-based, human; conditions: human, HBV-infected primary human hepatocytes (PHH); for CC50 at 14 days: PHH donor Hu8181, treated every three to four days for 14 days
PHH = experiment: as above; assay type: cell-based, human; conditions: treated every three to four days for 14 days
[7] = read-out: vRNA EC50, PHH donor BCD, HBV GTD, treated every three to four days for 14 days
[8] = read-out: vRNA EC50, PHH donor Hu276, HBV GTD, treated every three to four days for 14 days
[9] = read-out: vRNA EC50, PHH donor Hu349, HBV GTD, treated every three to four days for 14 days
[10] = read-out: vRNA EC50, PHH donor Hu4167, HBV GTD, treated every three to four days for 14 days
[11] = read-out: vRNA EC50, PHH donor Hu7272, HBV GTD, treated every three to four days for 14 days
[12] = read-out: vRNA EC50, PHH donor Hu8130, HBV GTD, treated every three to four days for 14 days
[13] = read-out: vRNA EC50, PHH donor Hu8181, HBV GTD, treated every three to four days for 14 days
[14] = read-out: HBeAg EC50, PHH donor BCD, HBV GTD, treated every three to four days for 14 days
[15] = read-out: HBeAg EC50, PHH donor Hu276, HBV GTD, treated every three to four days for 14 days
[16] = read-out: HBeAg EC50, PHH donor Hu349, HBV GTD, treated every three to four days for 14 days
[17] = read-out: HBeAg EC50, PHH donor Hu4167, HBV GTD, treated every three to four days for 14 days
[18] = read-out: HBeAg EC50, PHH donor Hu7272, HBV GTD, treated every three to four days for 14 days
[19] = read-out: HBeAg EC50, PHH donor Hu8130, HBV GTD, treated every three to four days for 14 days
[20] = read-out: HBeAg EC50, PHH donor Hu8181, HBV GTD, treated every three to four days for 14 days
[21] = 10 μM every three to four days, three PHH donors

Row | SMILES | CC50 (Cytotoxicity CC50, MRC-5) | CC50 [1] | measurable cytotoxicity [2] | EC50 (HBV [4]; [7]) | EC50 (HBV [4]; [8]) | EC50 (HBV [4]; [9]) | EC50 (HBV [4]; [10]) | EC50 (HBV [4]; [11]) | EC50 (HBV [4]; [12]) | EC50 (HBV [4]; [13]) | EC50 (HBV [5]; [14]) | EC50 (HBV [5]; [15]) | EC50 (HBV [5]; [16]) | EC50 (HBV [5]; [17]) | EC50 (HBV [5]; [18]) | EC50 (HBV [5]; [19]) | EC50 (HBV [5]; [20]) | CC50 at 14 days [6] | CC50 (PHH; PHH donor Hu276) | CC50 (PHH; PHH donor Hu349) | further results
1 | CCN(CCN(C)C)C(=O)CNCc1cc(C(=O)O)ccn1 [GS-080] | > 44 µM | > 44 µM | neither GS-5801 nor GS-080 had measurable cytotoxicity |  |  |  |  |  |  |  |  |  |  |  |  |  |  |  |  |  | 
2 | CCOC(=O)c1cc(CNCC(=O)N(CC)CCN(C)C)ncc1Br [GS-420] |  |  |  | > 10000 nM | > 10000 nM | > 10000 nM | > 10000 nM | > 10000 nM | > 10000 nM | > 10000 nM | > 10000 nM | > 10000 nM | > 10000 nM | > 10000 nM | > 10000 nM | > 10000 nM | > 10000 nM | > 10 µM | > 10 µM | > 10 µM | HBV antiviral activity in PHH (HBV [3]; concentrations up to 10 μM): did not exhibit HBV antiviral activity; CC50 (PHH; PHH donor Hu4167): > 10 µM; CC50 (PHH; PHH donor Hu7272): > 10 µM; CC50 (PHH; PHH donor Hu8130): > 10 µM; CC50 (PHH; PHH donor): > 10 µM
3 | CCOC(=O)c1ccnc(CNCC(=O)N(CC)CCN(C)C)c1 [GS-5801] | > 44 µM | > 44 µM | neither GS-5801 nor GS-080 had measurable cytotoxicity | 34 nM | 42 nM | 430 nM | 47 nM | 930 nM | 1100 nM | 160 nM | 14 nM | 100 nM | 380 nM | 150 nM | 610 nM | 1100 nM | 110 nM | > 10 µM | > 10 µM | > 10 µM | time course throughout which antiviral activity was maintained (HBV [3]; [21]): 30 to 32 days; time to maximal HBsAg and HBeAg inhibition after initiation of treatment (HBV [3]; [21]): 12 to 17 days; time inhibition of HBeAg and HBsAg was sustained following a pulse dose (HBV [3]; single two-hour pulse dose, 10 μM, donor): up to 20 days; EC50 (HBV [4]; 336 h, read-out: EC50 range across genotypes, intracellular HBV RNA, range across genotypes, 14 days of dosing): 51 to 2700 nM; EC50 (HBV [4]; 336 h, read-out: EC50 range for intracellular RNA, range over the seven PHH donors tested, HBV GTD, Day 14): 34 to 1100 nM; EC50 (HBV [4]; read-out: vRNA EC50, PHH infected with HBV GTA, treated every three to four days for 13 days): 1800 nM; EC50 (HBV [4]; read-out: vRNA EC50, PHH infected with HBV GTC, treated every three to four days for 13 days): 51 nM; EC50 (HBV [4]; read-out: vRNA EC50, PHH infected with HBV GTD, treated every three to four days for 13 days (Table 3)): 430 nM; EC50 (HBV [4]; read-out: vRNA EC50, PHH infected with HBV GTE, treated every three to four days for 13 days): 2700 nM; EC50 (HBV [5]; 336 h, read-out: EC50 range across genotypes, secreted HBeAg, range across genotypes, 14 days of dosing): 300 to 1400 nM; EC50 (HBV [5]; 336 h, read-out: EC50 range for secreted HBeAg, range over the seven PHH donors tested, HBV GTD, Day 14): 14 to 1100 nM; EC50 (HBV [5]; read-out: HBeAg EC50, PHH infected with HBV GTA, treated every three to four days for 13 days): 1100 nM; EC50 (HBV [5]; read-out: HBeAg EC50, PHH infected with HBV GTD, treated every three to four days for 13 days (Table 3)): 300 nM; EC50 (HBV [5]; read-out: HBeAg EC50, PHH infected with HBV GTE, treated every three to four days for 13 days): 1400 nM; CC50 ([6]; the seven PHH donors tested): > 10 µM; CC50 (PHH; PHH donor Hu4167): > 10 µM; CC50 (PHH; PHH donor Hu7272): > 10 µM; CC50 (PHH; PHH donor Hu8130): > 10 µM; CC50 (PHH; PHH donor): > 10 µM
